Measured values as given in the supplement of paper PMC10307832.

Tests used:
Test in all cases: relative viability (nuclei count vs DMSO), 5 days (fraction); higher = more cells survive
[1] = compound: COc1cc2nc(N3CCCN(C)CC3)nc(NC3CCN(Cc4ccccc4)CC3)c2cc1OC + Nc1ncn([C@H]2C[C@H](O)[C@@H](CO)O2)c(=O)n1 [Decitabine] (partner 2 µM)
In short: (§1)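 Lung cancer cell lines in 1536-well plates got either a single drug or a fixed anchor-drug dose together with five library-drug doses (not always all listed) in √10 steps, by pin tool, on the day after seeding. Nuclei were counted after 5 days, and relative viability is the treated-to-vehicle ratio of nuclei counts. Values are medians of duplicate plates.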

[2] = compound: COc1cc2nc(N3CCCN(C)CC3)nc(NC3CCN(Cc4ccccc4)CC3)c2cc1OC + CC(C)C[C@H](NC(=O)[C@H](Cc1ccccc1)NC(=O)c1cnccn1)B(O)O [Bortezomib] (partner 0.002 µM)
In short: as §1

[3] = compound: Cc1cc([C@@H](C)Nc2ccccc2C(=O)O)c2nc(N3CCOCC3)cc(=O)n2c1 [AZD6482] + CCNC(=O)c1noc(-c2cc(C(C)C)c(O)cc2O)c1-c1ccc(CN2CCOCC2)cc1 [Luminespib] (partner 0.01 µM)
In short: as §1

[4] = compound: Cc1cc([C@@H](C)Nc2ccccc2C(=O)O)c2nc(N3CCOCC3)cc(=O)n2c1 [AZD6482] + Cc1nc(Nc2ncc(C(=O)Nc3c(C)cccc3Cl)s2)cc(N2CCN(CCO)CC2)n1 [Dasatinib] (partner 0.075 µM)
In short: as §1

Cell Line: HCC-44
- relative viability ([1]; first compound 0.2 µM): 1.01
- relative viability ([1]; first compound 0.6325 µM): 0.855
- relative viability ([1]; first compound 2 µM): 0.936
- relative viability ([1]; first compound 6.325 µM): 0.944
- relative viability ([2]; first compound 0.2 µM): 0.935
- relative viability ([2]; first compound 0.6325 µM): 0.85
- relative viability ([2]; first compound 2 µM): 0.991
- relative viability ([2]; first compound 6.325 µM): 0.909
- relative viability ([3]; first compound 0.08 µM): 0.941
- relative viability ([3]; first compound 0.253 µM): 1.12
- relative viability ([3]; first compound 0.8 µM): 0.98
- relative viability ([3]; first compound 2.53 µM): 0.824
- relative viability ([3]; first compound 8 µM): 1.1

Cell Line: HCC-78
- relative viability ([1]; first compound 0.2 µM): 0.642
- relative viability ([1]; first compound 0.6325 µM): 0.683
- relative viability ([1]; first compound 2 µM): 0.729
- relative viability ([1]; first compound 6.325 µM): 0.712
- relative viability ([2]; first compound 0.2 µM): 0.511
- relative viability ([2]; first compound 0.6325 µM): 0.434
- relative viability ([2]; first compound 2 µM): 0.535
- relative viability ([2]; first compound 6.325 µM): 0.504
- relative viability ([4]; first compound 0.08 µM): 0.298
- relative viability ([4]; first compound 0.253 µM): 0.207
- relative viability ([4]; first compound 0.8 µM): 0.254
- relative viability ([4]; first compound 2.53 µM): 0.192
- relative viability ([4]; first compound 8 µM): 0.199

Cell Line: HCC-366
- relative viability ([1]; first compound 0.2 µM): 0.334
- relative viability ([1]; first compound 0.6325 µM): 0.292
- relative viability ([1]; first compound 2 µM): 0.358
- relative viability ([1]; first compound 6.325 µM): 0.309
- relative viability ([2]; first compound 0.2 µM): 1.02
- relative viability ([2]; first compound 0.6325 µM): 1
- relative viability ([2]; first compound 2 µM): 1.03
- relative viability ([2]; first compound 6.325 µM): 0.927
- relative viability ([4]; first compound 0.08 µM): 0.659
- relative viability ([4]; first compound 0.253 µM): 0.564
- relative viability ([4]; first compound 0.8 µM): 0.733
- relative viability ([4]; first compound 2.53 µM): 0.271
- relative viability ([4]; first compound 8 µM): 0.482

Cell Line: HCC-827
- relative viability ([1]; first compound 0.2 µM): 0.172
- relative viability ([1]; first compound 0.6325 µM): 0.315
- relative viability ([1]; first compound 2 µM): 0.221
- relative viability ([1]; first compound 6.325 µM): 0.326
- relative viability ([2]; first compound 0.2 µM): 0.99
- relative viability ([2]; first compound 0.6325 µM): 1.13
- relative viability ([2]; first compound 2 µM): 0.786
- relative viability ([2]; first compound 6.325 µM): 1.06
- relative viability ([3]; first compound 0.08 µM): 0.601
- relative viability ([3]; first compound 0.253 µM): 0.478
- relative viability ([3]; first compound 0.8 µM): 0.293
- relative viability ([3]; first compound 2.53 µM): 0.27
- relative viability ([3]; first compound 8 µM): 0.196
- relative viability ([4]; first compound 0.08 µM): 0.255
- relative viability ([4]; first compound 0.253 µM): 0.2
- relative viability ([4]; first compound 0.8 µM): 0.197
- relative viability ([4]; first compound 2.53 µM): 0.161
- relative viability ([4]; first compound 8 µM): 0.214

Cell Line: HOP-62
- relative viability ([1]; first compound 0.2 µM): 0.214
- relative viability ([1]; first compound 0.6325 µM): 0.201
- relative viability ([1]; first compound 2 µM): 0.198
- relative viability ([1]; first compound 6.325 µM): 0.216
- relative viability ([2]; first compound 0.2 µM): 0.623
- relative viability ([2]; first compound 0.6325 µM): 0.869
- relative viability ([2]; first compound 2 µM): 0.855
- relative viability ([2]; first compound 6.325 µM): 0.469
- relative viability ([3]; first compound 0.08 µM): 0.889
- relative viability ([3]; first compound 0.253 µM): 1.01
- relative viability ([3]; first compound 0.8 µM): 1.11
- relative viability ([3]; first compound 2.53 µM): 0.793
- relative viability ([3]; first compound 8 µM): 1.04
- relative viability ([4]; first compound 0.08 µM): 0.428
- relative viability ([4]; first compound 0.253 µM): 0.528
- relative viability ([4]; first compound 0.8 µM): 0.572
- relative viability ([4]; first compound 2.53 µM): 0.299
- relative viability ([4]; first compound 8 µM): 0.349

Cell Line: IA-LM
- relative viability ([2]; first compound 0.2 µM): 0.705
- relative viability ([2]; first compound 0.6325 µM): 0.764
- relative viability ([2]; first compound 2 µM): 1.04
- relative viability ([2]; first compound 6.325 µM): 0.737

Cell Line: LK-2
- relative viability ([1]; first compound 0.2 µM): 0.276
- relative viability ([1]; first compound 0.6325 µM): 0.244
- relative viability ([1]; first compound 2 µM): 0.359
- relative viability ([1]; first compound 6.325 µM): 0.326
- relative viability ([3]; first compound 0.08 µM): 0.231
- relative viability ([3]; first compound 0.253 µM): 0.187
- relative viability ([3]; first compound 0.8 µM): 0.229
- relative viability ([3]; first compound 2.53 µM): 0.177
- relative viability ([3]; first compound 8 µM): 0.167
- relative viability ([4]; first compound 0.08 µM): 0.349
- relative viability ([4]; first compound 0.253 µM): 0.286
- relative viability ([4]; first compound 0.8 µM): 0.327
- relative viability ([4]; first compound 2.53 µM): 0.26
- relative viability ([4]; first compound 8 µM): 0.221

Cell Line: NCI-H358
- relative viability ([1]; first compound 0.2 µM): 0.203
- relative viability ([1]; first compound 0.6325 µM): 0.2
- relative viability ([1]; first compound 2 µM): 0.2
- relative viability ([1]; first compound 6.325 µM): 0.158
- relative viability ([3]; first compound 0.08 µM): 0.422
- relative viability ([3]; first compound 0.253 µM): 0.485
- relative viability ([3]; first compound 0.8 µM): 0.338
- relative viability ([3]; first compound 2.53 µM): 0.173
- relative viability ([3]; first compound 8 µM): 0.199
- relative viability ([4]; first compound 0.08 µM): 0.151
- relative viability ([4]; first compound 0.253 µM): 0.186
- relative viability ([4]; first compound 0.8 µM): 0.132
- relative viability ([4]; first compound 2.53 µM): 0.0881
- relative viability ([4]; first compound 8 µM): 0.153

Cell Line: NCI-H522
- relative viability ([1]; first compound 0.2 µM): 0.623
- relative viability ([1]; first compound 0.6325 µM): 0.694
- relative viability ([1]; first compound 2 µM): 0.588
- relative viability ([1]; first compound 6.325 µM): 0.698
- relative viability ([3]; first compound 0.08 µM): 1.22
- relative viability ([3]; first compound 0.253 µM): 1.07
- relative viability ([3]; first compound 0.8 µM): 0.879
- relative viability ([3]; first compound 2.53 µM): 0.946
- relative viability ([3]; first compound 8 µM): 0.88
- relative viability ([4]; first compound 0.08 µM): 0.832
- relative viability ([4]; first compound 0.253 µM): 0.783
- relative viability ([4]; first compound 0.8 µM): 0.879
- relative viability ([4]; first compound 2.53 µM): 0.974
- relative viability ([4]; first compound 8 µM): 0.747

Cell Line: NCI-H1299
- relative viability ([2]; first compound 0.2 µM): 1.01
- relative viability ([2]; first compound 0.6325 µM): 1.01
- relative viability ([2]; first compound 2 µM): 1.02
- relative viability ([2]; first compound 6.325 µM): 1.05
